Assay: Glass transition temperature by differential scanning calorimetry (DSC)
Assay type: physicochemical
Settings: trehalose lyophilized in the same manner as the composition; average of samples
Protocol: The glass transition temperatures referred to herein (e.g., Tg(s) and Tg(c)) are the transition temperatures determined using differential scanning calorimetry (DSC). DSC measures the change in heat capacity between the glassy and rubbery states and is typically indicated by a change in baseline in a DSC thermogram.
The Tg(c) of the lyophilized composition was determined using a DSC Q2000 (TA Instruments) under a stream of nitrogen gas at 50 mL/minute as the purge gas. Several samples of the lyophilized composition (each about 5 mg) were prepared in a nitrogen purged glove box, and each was loaded into an aluminum DSC pan and hermetically sealed. The pans along with an empty pan as control were run in the DSC. The pans were first equilibrated at 25° C., then modulated at ±0.5° C. every 60 seconds, and then the temperature was raised at a rate of 2.5° C. per minute to a final temperature of 140° C. The samples was determined to have a Tg(c) of 97±2° C.
Several samples of trehalose were lyophilized in the same manner as set forth above for the caspofungin diacetate composition. The glass transition temperature Tg(s) of each of the lyophilized trehalose samples was determined using the instrument and procedure employed to determine Tg(c) described in the preceding paragraph. The average Tg(s) of the samples was 118±2° C.

## OC[C@H]1O[C@H](O[C@H]2O[C@H](CO)[C@@H](O)[C@H](O)[C@H]2O)[C@H](O)[C@@H](O)[C@@H]1O [trehalose]
  Tg(s): 118±2 °C
